These results are taken from patent publication US12251382B2, “Substituted amino-pyrimidine compound for use in a method for treatment and prevention of multiple sclerosis” (Merck Patent GmbH, priority 2018, dated 2025).

Each structure is given as a SMILES string. Counter-ions that a name gives are not always drawn.

The conditions of data set [1]: therapeutic or supratherapeutic doses, thorough QT studies; cited from earlier work.
The subject of data set [2] is human patients suffering from relapsing multiple sclerosis (RMS). Put plainly: Phase II RMS study: brain MRI (Gd+ T1 lesions, T2 lesions). It is filed as in vivo. Set-up: key to Gd+ T1 lesion rate (subject level), Median / Gd+ T1 Lesion rate, adjusted (negative binomial model): number of Gd+ T1 lesions per scan. How it is done: (§1) The assessing Investigator and central MRI reader were treatment blinded.
The protocol specified that subjects self-administered the IMP at a set time each day (every 12 hours ±2 hours). Subjects were to take their daily dose more than 1 hour prior to a meal or snack and more than 2 hours after a meal or snack. Clear fluids were allowed at any time. On trial visit days, the IMP was to be administered during the trial visit after the scheduled trial visit procedures (other than post-treatment PK/PD sampling) are completed.
Stratification occurred by region (USA or Western Europe, Eastern Europe and BTKO capable, Eastern Europe and not BTKO capable, and RoW). For the first 7 days, Tecfidera was administered orally at 120 mg twice daily. Following this and for the duration of treatment, Tecfidera was administered orally at 240 mg twice daily.
The protocol specified that MRI scans were to be performed at Screening, at 4-week intervals from Week 12 to 24, and at the End of Treatment Visit at Week 48 (including for subjects receiving Tecfidera who choose to enter the OLE Period). […] If a subject discontinued the study more than 4 weeks after his or her most recent MRI, the protocol specified that an MRI may be obtained at the 4-week Safety Follow-up Visit. The Screening MRI scan was to be acquired before randomization and dosing to allow for the readouts to be read by the central MRI reader (approximately 7 days).
Gadolinium was used to enhance T1-weighted lesions and to optimize clarity and accuracy of reporting. As gadolinium is excreted renally, subjects with acute renal insufficiency (eGFR <45 mL/min/1.73 m^2) will be excluded from the trial.
The protocol specified that brain MRI scans were performed according to a standardized imaging protocol before and after the administration of single-dose gadolinium. Images were assessed and reported by an independent, blinded, centralized MRI reading service, provided by NeuroRx Research. The assessment was performed in the absence of clinical information. Further details, including the scans required and the optimal MRI workflow, were provided in a separate Imaging Manual provided to each trial site by NeuroRx Research. All MRI images were reviewed and reported locally by a radiologist for safety. The local report was to contain only non-MS pathology and was to be provided to the Treating Investigator.
The primary endpoint was the total number of gadolinium-enhancing T1 lesions at Week 12, 16, 20, and 24. The primary analysis was a comparison of each evobrutinib dose arm versus placebo based on this endpoint, with a supportive test for dose-response. Secondary Endpoints
Other covariates were permitted to be considered. […] Descriptive statistics for the total number of Gd+ T1 lesions, at Week 12, 16, 20, and 24, are provided for each treatment group.
Estimation of mean per-scan number of Gd+ T1 lesions at Weeks 12, 16, 20, and 24, for each treatment group, was based on the NB model. In the analysis of each secondary endpoint, other covariates were permitted to be included in the model.
Primary and secondary efficacy endpoints were analysed based on the modified intention-to-treat (mITT) analysis set, consisting of all randomized patients with at least one available baseline and one post-baseline MRI assessment. […] For each endpoint, rate ratio (RR; null-hypothesis RR=1.0) adjusted for baseline disease activity was reported together with associated 95% CI and p-value. The T2 lesion endpoint was analysed similarly. Dose-response relationships between evobrutinib treatment dose and primary and key secondary endpoints were assessed for linear and monotonic trend. The analysis of CFB in cube root of volume of T2 lesions at Week 24 was based on a mixed-effect model for repeated measures, with fixed effects for treatment, week of visit, and treatment-by-week interaction, random effect for subject, and adjustment for baseline cube root of lesion volume. CFB in SF-36 score at Week 24 was analysed similarly. […]

For data set [3] the test system is unchanged. Put plainly: Phase II RMS study: qualified relapse assessment (ARR, relapse-free status). In kind it is in vivo. The following applies: open-label reference arm, 240 mg twice daily, Week 24. How it is done:
as §1
Subjects were assessed for MS relapse at visits beginning at Week 4. Relapse was also assessed at any Unscheduled Visit for Neurological Worsening and Relapse Assessment. For subjects in the OLE Period, MS relapse was assessed at all visits. A qualifying relapse was defined as new, worsening or recurrent neurological symptoms attributed to MS that last for at least 24 hours without fever or infection, or adverse reaction to prescribed medication, preceded by a stable or improving neurological status of at least 30 days. The relapse must have been accompanied by new clinical signs (i.e., changes in the neurological examination or an increase in EDSS score).
The protocol specified that all cases of potential relapse were to be objectively confirmed by the Investigator regardless of whether they were identified during a scheduled or unscheduled visit. Any assessments needed to confirm the relapse were to be performed, and details of the relapse were to be documented within the relevant section(s) of the eCRF.
Additional Secondary Endpoints
Analysis of secondary endpoints was based on the mITT analysis set. […] Descriptive statistics for ARR were calculated for each treatment group as the total number of qualified relapses divided by the number of subject-years of observation.
(§2) Primary and secondary efficacy endpoints were analysed based on the modified intention-to-treat (mITT) analysis set, consisting of all randomized patients with at least one available baseline and one post-baseline MRI assessment. […] For each endpoint, rate ratio (RR; null-hypothesis RR=1.0) adjusted for baseline disease activity was reported together with associated 95% CI and p-value. The T2 lesion endpoint was analysed similarly. Dose-response relationships between evobrutinib treatment dose and primary and key secondary endpoints were assessed for linear and monotonic trend. The analysis of CFB in cube root of volume of T2 lesions at Week 24 was based on a mixed-effect model for repeated measures, with fixed effects for treatment, week of visit, and treatment-by-week interaction, random effect for subject, and adjustment for baseline cube root of lesion volume. CFB in SF-36 score at Week 24 was analysed similarly. Descriptive statistics were used to further describe the study outcomes.

Data set [4] shares this test system. The data set can be described thus: Phase II RMS study: HRQoL SF-36 Physical Component Summary score. In kind it is in vivo. As to conditions: open-label reference arm, 240 mg twice daily. How it is done:
Analysis of Primary Endpoint
as §2

A short description of data set [5]: Phase II RMS study: safety (adverse events, laboratory) over 24 weeks. In kind it is in vivo. The following applies: 240 mg twice daily, 24 weeks. The method, then: as §1
Safety profile of the IMP was assessed through the recording, reporting and analysis of baseline medical conditions; AEs; physical examination findings including vital signs, ECGs, and laboratory tests (including Ig and subclass concentration and B, NK, and T cell counts). Comprehensive assessment of any apparent toxicity experienced by each subject was performed from the time of giving informed consent and throughout the trial. The Investigator was to report any AEs, whether observed by the Investigator or reported by the subject.
Adverse Event: An AE was any untoward medical occurrence in a subject or clinical investigation subject administered a pharmaceutical product, regardless of causal relationship with this treatment. An AE could therefore be any unfavorable and unintended sign (including an abnormal laboratory finding), symptom, or disease temporally associated with the use of a medicinal product, whether or not considered related to the medicinal product.
The Investigator was required to grade the severity or toxicity of each AE. Investigators referenced the National Cancer Institute-Common Terminology Criteria for AEs (NCI-CTCAE), Version 4.03 (publication date: 14 Jun. 2010) a descriptive terminology provided in the Manual of Procedures that can be used for AE reporting.
A general grading (severity/intensity; hereafter referred to as severity) scale was provided at the beginning of the above referenced document, and specific event grades were also provided. Only if a particular AE's severity was not specifically graded by the guidance document, then the Investigator was to use the general NCI-CTCAE definitions of Grade 1 through Grade 5 following his or her best medical judgment. The 5 general grades are: • Grade 1 or Mild • Grade 2 or Moderate • Grade 3 or Severe • Grade 4 or Life-threatening • Grade 5 or Death.
Serious Adverse Events: An SAE is any untoward medical occurrence that at any dose: • Results in death. • Is life-threatening. (Note: The term “life-threatening” refers to an event in which the subject is at risk of death at the time of the event, not an event that hypothetically might have caused death if it was more severe) • Requires inpatient hospitalization or prolongs an existing hospitalization, except in the case of hospitalizations due to protocol-defined relapses. • Results in persistent or significant disability or incapacity. • Is a congenital anomaly or birth defect. • Is otherwise considered to be medically important.

The mark [6] stands for this setting: open-label reference arm, 240 mg twice daily.

For the molecule `CC#CC(=O)N1CCC[C@H]1c1nc(-c2ccc(C(=O)Nc3ccccn3)cc2)c2c(N)nccn12` [acalabrutinib], in data set [1], the “Prolongation of the QTc interval” value is given as “Neither ibrutinib nor acalabrutinib have been associated with clinically relevant prolongation of the QTc interval”.

As for `COC(=O)/C=C/C(=O)OC` [Dimethyl fumarate, dimethyl fumarate, reference compound], in data set [2] (one patient of the open-label reference arm), the “Total Gd+ T1 lesions over 4 scans in an outlier patient” value is 230. Moreover, in data set [2] (setting [6]), the “Change in volume of T2 lesions from baseline to week 24, Mean ± SD” value came to 0.46 ± 2.97 cc; the “Change in volume of T2 lesions from baseline to week 24, Median” value is listed as −0.02 cc; the “Gd+ T1 lesion rate (subject level), Median” value is listed as 0.0; the “Gd+ T1 lesion rate (subject level; count per scan, weeks 12-24), Mean ± SD” value is on record as 1.45 ± 7.29. In data set [2] (setting [6]), the “Total Number of New or Enlarging T2 Lesions at Week 24, Mean ± SD” value amounted to 5.35 ± 16.67; the “Total number of Gd+ T1 lesions at Weeks 12, 16, 20, 24, Mean ± SD” value is listed as 5.78 ± 29.17; the “Total number of Gd+ T1 lesions at Weeks 12, 16, 20, 24, Median (min-max)” value is 0 (0-213). For the same molecule, in data set [2] (open-label reference arm, 240 mg twice daily, Weeks 12-24), the “New or enlarging T2 lesion rate (subject level), Mean ± SD” value stood at 1.54 ± 5.46. In addition, the “Total number of Gd+ T1 lesions at Weeks 12, 16, 20, 24, Mean ± SD” value in data set [2] (open-label reference arm, 240 mg twice daily, listed as dimethyl fumarate) was 5.78 (±29.17). Moreover, in data set [3], the “Proportion of patients who qualified as relapse-free” value stood at 89% and the “Unadjusted ARR” value is reported as 0.20. In data set [4], the “Change in SF-36 PCS score from baseline to week 24, Mean ± SD” value was 1.6 ± 5.17 and the “Change in SF-36 PCS score from baseline to week 24, Median” value was 1.7. Further, in data set [4] (listed as dimethyl fumarate), the “Change in SF-36 PCS score from baseline to week 24, Mean ± SD” value is 1.6±5.17. Also, in data set [5], the “TEAE: Infections and infestations” value is 7 (13.0) n (%); the “TEAE: Urinary tract infection” value is 0 (0.0) n (%).
